Each structure is given as a SMILES string. Entries after “also recorded” stand apart in the source; their conditions may differ.

The values that follow come from US20220251039A1, “Diaryl-B-Lactam Compound and Preparation Method and Pharmaceutical Use Thereof” (Fudan University, priority 2016, published 2022).

For one data set, the system named is SKOV3. As to the kind of experiment: MTT antiproliferative assay, SKOV3. Format: cell-based. The following applies: Homo sapiens, SK-OV-3, SKOV3, 48 h, read-out: In vitro cell growth inhibition IC50, SKOV3. The method, then: (§1) 5000 tumor cells per well were seeded into 96-well plate and allowed to adhere overnight. Cells were treated with various concentrations of tested compounds or DMSO (0.2%, as negative control) for 48 h. Then, the medium along with tested compounds or DMSO was discarded and […] per well MTT containing medium (0.5 mg/mL) was added. After incubation at 37° C. for 4 h, the MTT-containing medium was replaced by DMSO (150 μL per well) to dissolve the formazan crystals. Absorbance of the resulting solution was measured by microplate reader (Biotech ELx800) at 540 nm wavelength. Growth inhibition rates were calculated with the absorbance. Half maximal inhibitory concentration (IC50) of each compound was calculated using GraphPad Prism, version 6.0.

A further data set has as its system Hela. As to the kind of experiment: MTT antiproliferative assay, Hela. In kind it is cell-based. The following applies: Homo sapiens, 48 h, read-out: In vitro cell growth inhibition IC50, Hela. The method, then: as §1
Data set [1] concerns tubulin. As to the kind of experiment: Immunoblotting analysis of polymerized/depolymerized tubulin. Format: cell-based, human. The following applies: Hela cells, 6 h. Here is the method:
After being treated with diluent (0.2% DMSO), tested compound, CA-4 or PTX for 6 h, Hela cells were lysed with microtubulestabilizing buffer, containing 100 mM PIPES, pH 6.8, 1 mM MgCl2, 2 mM EGTA, 0.5% NP-40, 2 M glycerol, 5 μM PTX and protease inhibitors cocktail (Roche), and the lysate was centrifuged at 15,000 rpm for 15 min. Supernatant containing depolymerized tubulin was carefully collected, whereas pellet (polymerized tubulin) was further dissolved in SDS-lysis buffer (Beyotime, China). Equal amounts of supernatant and dissolved pellet were subjected to immunoblotting analysis as described above using a tubulin antibody (Proteintech).
For orientation: Immunoblotting shows a protein as a band on a membrane.

Data set [2] deals with tubulin. As to the kind of experiment: Immunofluorescent analysis of tubulin morphology. The following applies: SKOV-3 cells, 24 h. In kind it is cell-based, human. The method, then: After treatment with diluent (0.2% DMSO) or tested compounds at indicated concentrations for 24 h, SKOV-3 cells were fixed with methanol, permeabilized with 0.1% Triton X-100 in PBS and blocked by goat serum. Then the cells were incubated with a-tubulin antibody at 4° C. overnight, followed by incubation with Alexa 488 labeled secondary antibody (Jackson ImmunoResearch) at RT for 1 h. After being stained with DAPI, cells were examined and photographed with a Leica SP5 co-focal fluorescence microscope.

The subject of a further data set is MDA-MB-231 cells. As to the kind of experiment: Colony formation assay. Format: cell-based, human. The following applies: 48 h treatment, 7-10 days growth. Here is the method:
1000 MDA-MB-231 cells per well were seeded into 6-well plate at a single cell density and were cultured at 37° C. for 48 h. After being treated with indicated concentrations of 69, 70 and 97, CA-4 as positive control, or diluent (0.2% DMSO) as negative control for 48 h, the agents containing medium was replaced by fresh medium to allow cell growth for additional 7-10 days. Then the cells were fixed with methanol and stained with gentian violet for 30 min. The number of colonies which consisted of more than 50 cells were counted. The results were indicated as mean values from three independent determinations.

Data set [3] relates to p-histone H3, cyclin B1 and BuBR1. As to the kind of experiment: Cell cycle associated proteins assay. Format: cell-based, human. The following applies: HeLa cells, 24 h, Western blot and qPCR. Here is the method: A. HeLa cells were treated with 69, 70, 97 or DMSO for 24 h. After being harvested, the cells were lysed, and the concentrations of total protein were determined by BCA protein assay kit (Beyotime, China). […] The membrane was blocked with 5% BSA in TBST for 1.5 h, then incubated overnight with specific primary antibodies (Proteintech) at 4° C. After being washed three times by TBST, the membrane was incubated with specific secondary antibodies (Abnova, Taipei, China) at room temperature for 2 h. Finally, chemiluminescent reagents (Millipore) were employed to detect the protein bands.
(§2) B. Quantitative PCR assay: HeLa cells were treated with 69, 70 or 97. The expression level of mRNA of target proteins was tested with qPCR kit (Takara).

In the next data set the test system is cellular apoptosis. As to the kind of experiment: Cell apoptosis analysis (Annexin V/PI). In kind it is cell-based. The following applies: 48 h, Annexin-V/PI flow cytometry. Here is the method:
Cell apoptosis was detected using FITC Annexin V Apoptosis Detection Kit (BD Biosciences) according to manufacturer's instructions. Briefly, cells were incubated with indicated concentrations of 69, 70 and 97, CA-4 as positive control or diluent (0.2% DMSO) as negative control for 48 h. Then the cells were harvested, washed twice with PBS, and re-suspended in binding buffer. After being stained with Annexin-V and PI for 15 min in the dark place, cells were subjected to flow cytometry (Cytomics FC 500 MPL, Beckman Coulter) analysis. The results were indicated as mean values from three independent determinations.
(In general: Flow cytometry measures light scatter and fluorescence of single cells or particles in a stream.)

Data set [4] concerns Bax, p53 and cleaved-PARP. As to the kind of experiment: Expression level of apoptosis associated proteins. In kind it is cell-based, human. The following applies: HeLa cells, Western blot and qPCR. The method, then: A. Western blotting: After being treated with candidate compound, cells were harvested and lysed. Then, the lysate was isolated by ultracentrifuge and quantified by BCA assay according to the protocol. After being denatured, equivalent protein of each sample was separated by SDS-PAGE gel and wet-transferred onto […] nitrocellulose membrane. After being blocked by PBS containing 5% skim milk, the membrane was incubated with primary antibody at 4° C. overnight and secondary antibody at room temperature for 2 h and then visualized by enhanced chemiluminescence kit (Thermo Fisher, USA), sequentially.
as §2

The test system of the next data set is KM mice. As to the kind of experiment: Acute toxicity assay. In kind it is in vivo. The method, then:
KM mice were housed individually in a specific pathogen free facility. Groups of mice (n=10 per group, half male and half female) were injected intraperitoneally once with various dosages of 69 (95, 70, 50, 35, 25 mg/kg), 70 (500, 425, 350, 275, 200 mg/kg), 97 (275, 200, 150, 125 and 100 mg/kg) or vehicle (8.3% cremohorp EL and 8.3% alcohol in PBS) as negative control, respectively. 69, 70 and 97 was dissolved in cremeohore EL and alcohol mixture (1:1, v/v) and further diluted with PBS (1:5, v/v). The death of mice were monitored daily and recorded up to 14 days after injection.

For a further data set, the system named is A2780 cells. As to the kind of experiment: Xenografts tumor growth assay in nude mice. The following applies: A2780 xenograft. In kind it is in vivo, Balb/c nude mice. Here is the method:
6 weeks old female Balb/c nude mice were purchased from Shanghai Slac Laboratory Animal Co. Ltd. (Shanghai, China). 2*10^6 A2780 cells suspended in 0.2 mL PBS per mouse was injected subcutaneously into the nude mice. […] Administration of agents or vehicle, or agents and measurement of tumor volumes with a digital caliper was done once every 2 days. Tumor volumes were calculated as volume=shortest diameter (W)^2*longest diameter (L)*0.52. When the average tumor volumes of vehicle treated group reached 2000 mm^3 in diameter, the mice were sacrificed and the tumors were isolated and weighed. Visceral organs of the mice as well as solid tumors were further analyzed by H&E staining.

On to `COc1ccc([C@H]2C(=O)C(=O)N2c2cc(OC)c(OC)c(OC)c2)cc1OCc1ccccc1` [Compound 71, (S)-4-(3-(benzyloxy)-4-methoxyphenyl)-1-(3,4,5-trimethoxyphenyl)azetidine-2,3-dione], for which the IC50 in the data set on SKOV3 and in the data set with Hela was more than 10 µM in each case.
On to `COc1ccc([C@H]2[C@H](C)C(=O)N2c2cc(OC)c(OC)c(OC)c2)cc1O` [Compound 97, (3S,4R)-4-(3-hydroxy-4-methoxyphenyl)-3-methyl-1-(3,4,5-trimethoxyphenyl)azetidin-2-one], for which the “polymerized tubulin (immunoblotting)” value with tubulin [1] was “significantly inhibit tubulin aggregation; also recorded: dramatically reduction of polymerized tubulin”. Further, the “tubulin assembly (immunofluorescence)” value with tubulin [2] is given as “significantly inhibit tubulin aggregation; also recorded: strongly inhibit tubulin assembly in cancer cells”. For the same molecule, the colony formation result in the data set on MDA-MB-231 cells is reported as “significantly inhibit the formation of colonies of cancer cells”. Besides, the “expression of p-histone H3, cyclin B1 and BuBR1” value in [3] is “significantly promote the expression of phosphorylated histone H3, cyclin B1, and mitotic checkpoint protein BuBR1”. Moreover, the cellular apoptosis result in the data set on cellular apoptosis is recorded as “significantly promote apoptosis; also recorded: significantly induce cellular apoptosis”. Further, the “expression of Bax, p53 and cleaved-PARP” value in data set [4] was “significantly promote the expression of the proapoptotic protein Bax, the tumor suppressor gene p53, and the cleaved DNA repair enzyme; also recorded: significantly induce the expression of Bax, p53 and cleaved-PARP”. In the data set on KM mice (100 mg/kg i.p. once), the “No. of dead mice 5-14 days” value turned out to be 0, the “No. of dead mice 1 day” value amounted to 0, the “No. of dead mice 2 days” value is given as 0 and the “No. of dead mice 3 days” value is listed as 1. Besides, in the data set on KM mice (100 mg/kg i.p. once), the “No. of dead mice 4 days” value came out at 0, the “No. of dead mice Total death” value was 1 and the “Survival (%) on day 14” value is 90%. For the same molecule, in the data set on KM mice (125 mg/kg i.p. once), the “No. of dead mice 5-14 days” value is 0, the “No. of dead mice 1 day” value amounted to 0, the “No. of dead mice 2 days” value stood at 2 and the “No. of dead mice 3 days” value was found to be 1. Besides, in the data set with KM mice (125 mg/kg i.p. once), the “No. of dead mice 4 days” value is reported as 0, the “No. of dead mice Total death” value is recorded as 3 and the “Survival (%) on day 14” value turned out to be 70%. Further, in the data set on KM mice (150 mg/kg i.p. once), the “No. of dead mice 5-14 days” value stood at 0, the “No. of dead mice 1 day” value is 2, the “No. of dead mice 2 days” value was 4 and the “No. of dead mice 3 days” value was found to be 0. Further, in the data set with KM mice (150 mg/kg i.p. once), the “No. of dead mice 4 days” value was found to be 0, the “No. of dead mice Total death” value came to 6 and the “Survival (%) on day 14” value stood at 40%. In the data set with KM mice (200 mg/kg i.p. once), the “No. of dead mice 5-14 days” value is reported as 0, the “No. of dead mice 1 day” value amounted to 1, the “No. of dead mice 2 days” value came to 4 and the “No. of dead mice 3 days” value was 2. Also, in the data set on KM mice (200 mg/kg i.p. once), the “No. of dead mice 4 days” value is 0, the “No. of dead mice Total death” value was 7 and the “Survival (%) on day 14” value is given as 30%. Also, in the data set with KM mice (275 mg/kg i.p. once), the “No. of dead mice 5-14 days” value was 0, the “No. of dead mice 1 day” value was determined as 2, the “No. of dead mice 2 days” value is listed as 4 and the “No. of dead mice 3 days” value came to 2. In the data set on KM mice (275 mg/kg i.p. once), the “No. of dead mice 4 days” value amounted to 1, the “No. of dead mice Total death” value worked out at 9 and the “Survival (%) on day 14” value worked out at 10%. The “tumor growth in vivo” value with A2780 cells (i.p. once every 2 days, 69 7.5 mg/kg, 70 12.5 mg/kg, 97 4 or 8 mg/kg) is given as “significantly inhibit tumor growth in vivo; also recorded: anti-tumor activities in vivo”. Moreover, in the data set with A2780 cells (treated groups), the “H&E staining of liver, kidney and spleen” value is “no abnormal areas are observed in tissue staining of liver, kidney and spleen; also recorded: no detectable abnormalities were observed in liver, kidney and spleen”; the “H&E staining of tumor sections (necrosis)” value is listed as “cause tumor tissue to produce necrotic areas; also recorded: extensive areas of necrosis or cell death”.
